Measurements: patent publication US20130096145A1, “Use of 1H-quinazoline-2,4-diones” (Novartis AG, priority 2010, published 2013)

The compounds below were run on OF1 mice (assay: Murine maximal electroshock test (MES Test)). Conditions: Mus musculus, po, pre-treatment time 1 h; protected = seizure duration 3 s or less.
Format: in vivo
Procedure: (§1) Compounds of the invention were tested in OF1 mice using the maximal electroshock test (MES Test) described in detail by Schmutz et al., Naunyn-Schmiedeberg's Arch Pharmacol 1990, 342, 61-66. Briefly, generalized tonic-clonic convulsions of the hind extremities were induced by passing electrical current through temporal electrodes (50 Hz, 18 mA, 0.2s). […] 30 mg/kg carbamazepine was used as a positive control; mice were classified as protected by a compound if the duration of the seizure lasted only 3 second or less. Five mice were used for each treatment condition and the percentage of protected mice was used as readout (i.e. a compound could give 0%, 20%, 40%, 60%, 80% or 100% protection). Compounds of the invention were given at a dose of 50 mg/kg, p.o., 1 hour prior to induction of convulsions (i.e. “pre-treatment time -1 h”). ED50 values (ED: effective dose) were calculated using GraphPad Prism, v4.02. 15 s after shock administration, mouse blood was collected for determination of compounds' blood exposure.

Row | SMILES | ED50 [mg/kg]
1 | CC(C)n1nccc1-c1cc2c(=O)n(NS(C)(=O)=O)c(=O)[nH]c2cc1CF [Compound C-3, N-[7-Fluoromethyl-6-(2-isopropyl-2H-pyrazol-3-yl)-2,4-dioxo-1,4-dihydro-2H-quinazolin-3-yl]-methanesulfonamide] | 13.5

Same assay, conditions: p.o., pre-treatment time 1 h; protected = seizure duration 3 s or less

Row | SMILES | MES-Test (1 h, po) ED50 [mg/kg]
2 | CS(=O)(=O)Nn1c(=O)[nH]c2cc(C(F)(F)F)c(C3CCCO3)cc2c1=O [B-2 (R), N-[2,4-Dioxo-6-(tetrahydro-furan-2-yl)-7-trifluoromethyl-1,4-dihydro-2H-quinazolin-3-yl]-methanesulfonamide] | 12.8
3 | CS(=O)(=O)Nn1c(=O)[nH]c2cc(C(F)(F)F)c(C3CCCO3)cc2c1=O [B-2 (S), N-[2,4-Dioxo-6-(tetrahydro-furan-2-yl)-7-trifluoromethyl-1,4-dihydro-2H-quinazolin-3-yl]-methanesulfonamide] | 33.2

Same assay, conditions: percentage of protected mice (5 per condition) @25, p.o., 1 h

Row | SMILES | MES-Test (1 h, po) protection @25
4 | CS(=O)(=O)Nn1c(=O)[nH]c2cc(C(F)(F)F)c(C3CCOC3)cc2c1=O (stereo not drawn) [Compound B-3, N-[2,4-Dioxo-6-(tetrahydro-furan-3-yl)-7-trifluoromethyl-1,4-dihydro-2H-quinazolin-3-yl]-methanesulfonamide] | 20% @25^3
5 | COCCn1nccc1-c1cc2c(=O)n(NS(C)(=O)=O)c(=O)[nH]c2cc1C(C)C [Compound C-1, N-{7-Isopropyl-6-[2-(2-methoxy-ethyl)-2H-pyrazol-3-yl]-2,4-dioxo-1,4-dihydro-2H-quinazolin-3-yl}-methanesulfonamide] | 40% @25

Same assay, conditions: percentage of protected mice (5 per condition) @50, p.o., 1 h

Row | SMILES | MES-Test (1 h, po) protection @50 [% @50]
6 | Cn1nncc1-c1cc2c(=O)n(NS(C)(=O)=O)c(=O)[nH]c2cc1C(F)(F)F [Comparative, N-(6-(1-methyl-1H-1,2,3-triazol-5-yl)-2,4-dioxo-7-trifluoromethyl-1,4-dihydro-2H-quinazolin-3-yl]-methanesulfonamide, reference compound] | 0

These compounds were tested on mouse (assay: Oral bioavailability: audiogenic mouse test and/or MES test). Conditions: oral administration.
Format: in vivo
Procedure: The oral bioavailability was tested using the audiogenic mouse test (Audiogenic seizures, R. L. Collins; Chapter 14, pages: 347-372. In: Experimental Models of Epilepsy; By: Pupura, Penry, Tower, Woodbury, Walter, Raven Press, New York, 1972. Standard Book Number: 0-911216-26-X) and/or the MES test.
as §1

Row | SMILES | In vivo orally active
7 | Cn1nncc1-c1cc2c(=O)n(NS(C)(=O)=O)c(=O)[nH]c2cc1C(F)(F)F [Comparative, N-(6-(1-methyl-1H-1,2,3-triazol-5-yl)-2,4-dioxo-7-trifluoromethyl-1,4-dihydro-2H-quinazolin-3-yl]-methanesulfonamide, reference compound] | No
8 | CC(O)c1cc2c(=O)n(NS(C)(=O)=O)c(=O)[nH]c2cc1C(F)(F)F (stereo not drawn) [Compound A-1, N-[6-(1-Hydroxy-ethyl)-2,4-dioxo-7-trifluoromethyl-1,4-dihydro-2H-quinazolin-3-yl]-methanesulfonamide] | Yes
9 | COC(C)c1cc2c(=O)n(NS(C)(=O)=O)c(=O)[nH]c2cc1C(F)(F)F (stereo not drawn) [Compound A-2, N-[6-(1-Methoxy-ethyl)-2,4-dioxo-7-trifluoromethyl-1,4-dihydro-2H-quinazolin-3-yl]-methanesulfonamide] | Yes
10 | CCC(O)c1cc2c(=O)n(NS(C)(=O)=O)c(=O)[nH]c2cc1C(F)(F)F (stereo not drawn) [Compound A-3, N-[6-(1-Hydroxy-propyl)-2,4-dioxo-7-trifluoromethyl-1,4-dihydro-2H-quinazolin-3-yl]-methanesulfonamide] | Yes
11 | CC(C)OC(C)c1cc2c(=O)n(NS(C)(=O)=O)c(=O)[nH]c2cc1C(F)(F)F (stereo not drawn) [Compound A-4, N-[6-(1-Isopropoxy-ethyl)-2,4-dioxo-7-trifluoromethyl-1,4-dihydro-2H-quinazolin-3-yl]-methanesulfonamide] | Yes
12 | CCOC(C)c1cc2c(=O)n(NS(C)(=O)=O)c(=O)[nH]c2cc1C(F)(F)F (stereo not drawn) [Compound A-5, N-[6-(1-Ethoxy-ethyl)-2,4-dioxo-7-trifluoromethyl-1,4-dihydro-2H-quinazolin-3-yl]-methanesulfonamide] | Yes
13 | CCCOC(CC)c1cc2c(=O)n(NS(C)(=O)=O)c(=O)[nH]c2cc1C(F)(F)F (stereo not drawn) [Compound A-6, N-[2,4-Dioxo-6-(1-propoxy-propyl)-7-trifluoromethyl-1,4-dihydro-2H-quinazolin-3-yl]-methanesulfonamide] | Yes
14 | CCC(OC(C)C)c1cc2c(=O)n(NS(C)(=O)=O)c(=O)[nH]c2cc1C(F)(F)F (stereo not drawn) [Compound A-7, N-[6-(1-isopropoxy-propyl)-2,4-dioxo-7-trifluoromethyl-1,4-dihydro-2H-quinazolin-3-yl]-methanesulfonamide] | Yes
15 | CCOC(CC)c1cc2c(=O)n(NS(C)(=O)=O)c(=O)[nH]c2cc1C(F)(F)F (stereo not drawn) [Compound A-13, N-[6-(1-Ethoxy-propyl)-2,4-dioxo-7-trifluoromethyl-1,4-dihydro-2H-quinazolin-3-yl]-methanesulfonamide] | Yes
16 | CC(OC1CCCC1)c1cc2c(=O)n(NS(C)(=O)=O)c(=O)[nH]c2cc1C(F)(F)F (stereo not drawn) [Compound A-14, N-[6-(1-Cyclopentyloxy-ethyl)-2,4-dioxo-7-trifluoromethyl-1,4-dihydro-2H-quinazolin-3-yl]-methanesulfonamide] | yes
17 | CCCC(O)c1cc2c(=O)n(NS(C)(=O)=O)c(=O)[nH]c2cc1C(F)(F)F (stereo not drawn) [Compound A-15, N-[6-(1-Hydroxy-butyl)-2,4-dioxo-7-trifluoromethyl-1,4-dihydro-2H-quinazolin-3-yl]-methanesulfonamide] | Yes
18 | COCCC(O)c1cc2c(=O)n(NS(C)(=O)=O)c(=O)[nH]c2cc1C(F)(F)F (stereo not drawn) [Compound A-18, N-[6-(1-Hydroxy-3-methoxy-propyl)-2,4-dioxo-7-trifluoromethyl-1,4-dihydro-2H-quinazolin-3-yl]-methanesulfonamide] | Yes
19 | CS(=O)(=O)Nn1c(=O)[nH]c2cc(C(F)(F)F)c(C3CCCO3)cc2c1=O (stereo not drawn) [Compound B-2, N-[2,4-Dioxo-6-(tetrahydro-furan-2-yl)-7-trifluoromethyl-1,4-dihydro-2H-quinazolin-3-yl]-methanesulfonamide] | Yes
20 | CS(=O)(=O)Nn1c(=O)[nH]c2cc(C(F)(F)F)c(C3CCOC3)cc2c1=O (stereo not drawn) [Compound B-3, N-[2,4-Dioxo-6-(tetrahydro-furan-3-yl)-7-trifluoromethyl-1,4-dihydro-2H-quinazolin-3-yl]-methanesulfonamide] | Yes
21 | COCCn1nccc1-c1cc2c(=O)n(NS(C)(=O)=O)c(=O)[nH]c2cc1C(C)C [Compound C-1, N-{7-Isopropyl-6-[2-(2-methoxy-ethyl)-2H-pyrazol-3-yl]-2,4-dioxo-1,4-dihydro-2H-quinazolin-3-yl}-methanesulfonamide] | yes
22 | CC(C)n1nccc1-c1cc2c(=O)n(NS(C)(=O)=O)c(=O)[nH]c2cc1C(F)(F)F [Compound C-2, N-[6-(2-Isopropyl-2H-pyrazol-3-yl)-2,4-dioxo-7-trifluoromethyl-1,4-dihydro-2H-quinazolin-3-yl]-methanesulfonamide] | Yes
23 | CC(C)n1nccc1-c1cc2c(=O)n(NS(C)(=O)=O)c(=O)[nH]c2cc1CF [Compound C-3, N-[7-Fluoromethyl-6-(2-isopropyl-2H-pyrazol-3-yl)-2,4-dioxo-1,4-dihydro-2H-quinazolin-3-yl]-methanesulfonamide] | Yes
24 | COCCn1nccc1-c1cc2c(=O)n(NS(C)(=O)=O)c(=O)[nH]c2cc1C(F)(F)F [Compound C-4, N-{6-[2-(2-Methoxy-ethyl)-2H-pyrazol-3-yl]-2,4-dioxo-7-trifluoromethyl-1,4-dihydro-2H-quinazolin-3-yl}-methanesulfonamide] | Yes
25 | CS(=O)(=O)Nn1c(=O)[nH]c2cc(C(F)(F)F)c(-c3ccnn3O)cc2c1=O [Compound C-5, N-[6-(2-Hydroxy-2H-pyrazol-3-yl)-2,4-dioxo-7-trifluoromethyl-1,4-dihydro-2H-quinazolin-3-yl]-methanesulfonamide] | Yes
26 | CC(C)c1cc2[nH]c(=O)n(NS(C)(=O)=O)c(=O)c2cc1-c1ccnn1C [Compound C-7, N-[7-Isopropyl-6-(2-methyl-2H-pyrazol-3-yl)-2,4-dioxo-1,4-dihydro-2H-quinazolin-3-yl]-methanesulfonamide] | Yes
27 | Cn1nccc1-c1cc2c(=O)n(NS(C)(=O)=O)c(=O)[nH]c2cc1C(F)F [Compound C-9, N-[7-Difluoromethyl-6-(2-methyl-2H-pyrazol-3-yl)-2,4-dioxo-1,4-dihydro-2H-quinazolin-3-yl]-methanesulfonamide] | Yes
28 | CC(C)n1nccc1-c1cc2c(=O)n(NS(C)(=O)=O)c(=O)[nH]c2cc1C(F)F [Compound C-10, N-[7-Difluoromethyl-6-(2-isopropyl-2H-pyrazol-3-yl)-2,4-dioxo-1,4-dihydro-2H-quinazolin-3-yl]-methanesulfonamide] | Yes
29 | CCc1cc2[nH]c(=O)n(NS(C)(=O)=O)c(=O)c2cc1-c1ccnn1C [Compound C-11, N-[7-Ethyl-6-(2-methyl-2H-pyrazol-3-yl)-2,4-dioxo-1,4-dihydro-2H-quinazolin-3-yl]-methanesulfonamide] | Yes
30 | CCc1cc2[nH]c(=O)n(NS(C)(=O)=O)c(=O)c2cc1-c1ccnn1CC [Compound C-12, N-[7-Ethyl-6-(2-ethyl-2H-pyrazol-3-yl)-2,4-dioxo-1,4-dihydro-2H-quinazolin-3-yl]-methanesulfonamide] | Yes
31 | CC(C)n1nccc1-c1cc2c(=O)n(NS(C)(=O)=O)c(=O)[nH]c2cc1C(C)(F)F [Compound C-16, N-[7-(1,1-difluoro-ethyl)-6-(2-isopropyl-2H-pyrazol-3-yl)-2,4-dioxo-1,4-dihydro-2H-quinazolin-3-yl]-methanesulfonamide] | Yes
32 | CC(F)c1cc2[nH]c(=O)n(NS(C)(=O)=O)c(=O)c2cc1-c1ccnn1C(C)C (stereo not drawn) [Compound C-17, N-[7-(1-fluoro-ethyl)-6-(2-isopropyl-2H-pyrazol-3-yl)-2,4-dioxo-1,4-dihydro-2H-quinazolin-3-yl]-methanesulfonamide] | Yes
33 | Cn1nccc1-c1cc2c(=O)n(NS(C)(=O)=O)c(=O)[nH]c2cc1C(F)(F)F [Compound C-18, N-[6-(2-Methyl-2H-pyrazol-3-yl)-2,4-dioxo-7-trifluoromethyl-1,4-dihydro-2H-quinazolin-3-yl]-methanesulfonamide] | Yes
